Patent US20160022684A1, “BET INHIBITOR AND BRUTON'S TYROSINE KINASE INHIBITOR COMBINATIONS” (Pharmacyclics LLC, priority 2014, published 2016)

Tests used:
Assay type in all cases: cell-based
TMD8 = experiment: Combined drug treatment cell viability (CellTiter-Glo), ibrutinib with BET inhibitors, TMD8; conditions: JQ1 20 nM, 3 days
Procedure: (§1) The DLBCL cell lines used during the experiments included TMD8, OCI-LY3, OCI-LY10, U-2932 and SU-DHL-2. DLBCL cells at either 1×10^4 cells or 2×10^4 cells were plated onto each well of a 96-W plate (Table 1). […] The 96-W plate was then incubated for 3 days. Cell viability was examined using a CellTiter-Glo assay. A 40 μL of CellTiter-Glo reagent was added directly into each well of the 96-W plate. The plate was then shaken on a Shaker ([…]) at speed 5 for 10-20 min at room temperature. Next, about 100 μL of the mixed medium was transferred to a white, non-transparent, flat bottom 96-W plate for assaying. […] Measurements were taken at room temperature. CellTiter-Glow reagents were thawed prior to use. Cells pre-plated onto a second 96-W plate and incubated at room temperature for 30 minutes were used for calibration purposes. […] CI is a quantitative description of the interaction property of the combination of two drugs.

OCI-LY10 = experiment: Combined drug treatment cell viability (CellTiter-Glo), ibrutinib with BET inhibitors, OCI-LY10; conditions: OCI-LY-10, JQ1 1 uM, 3 days
Procedure: as §1

OCI-LY3 = experiment: Combined drug treatment cell viability (CellTiter-Glo), ibrutinib with BET inhibitors, OCI-LY3; conditions: OCI-LY-3, JQ1 1 uM, 3 days
Procedure: as §1

U-2932 = experiment: Combined drug treatment cell viability (CellTiter-Glo), ibrutinib with BET inhibitors, U-2932; conditions: U2932, JQ1 20 nM, 3 days
Procedure: as §1

SU-DHL-2 = experiment: Combined drug treatment cell viability (CellTiter-Glo), ibrutinib with BET inhibitors, SU-DHL-2; conditions: JQ1 100 nM, 3 days
Procedure: as §1

[1] = ibrutinib 0 nM (BET inhibitor alone): I-BET151 200 nM, OTX015 100 nM
[2] = ibrutinib 0.0256 nM with I-BET151 200 nM, OTX015 100 nM or medium alone (row)
[3] = ibrutinib 0.64 nM with I-BET151 200 nM, OTX015 100 nM or medium alone (row)
[4] = ibrutinib 3.2 nM with I-BET151 200 nM, OTX015 100 nM or medium alone (row)
[5] = ibrutinib 16 nM with I-BET151 200 nM, OTX015 100 nM or medium alone (row)
[6] = ibrutinib 80 nM with I-BET151 200 nM, OTX015 100 nM or medium alone (row)
[7] = ibrutinib 400 nM with I-BET151 200 nM, OTX015 100 nM or medium alone (row)
[8] = ibrutinib 2000 nM with I-BET151 200 nM, OTX015 100 nM or medium alone (row)
[9] = ibrutinib 10000 nM with I-BET151 200 nM, OTX015 100 nM or medium alone (row)
[10] = ibrutinib […] with I-BET151 200 nM, OTX015 100 nM or medium alone (row)
[11] = ibrutinib 0 nM (BET inhibitor alone): I-BET151 5 uM, OTX015 1 uM
[12] = ibrutinib 0.0256 nM with I-BET151 5 uM, OTX015 1 uM or medium alone (row)
[13] = ibrutinib 0.64 nM with I-BET151 5 uM, OTX015 1 uM or medium alone (row)
[14] = ibrutinib 3.2 nM with I-BET151 5 uM, OTX015 1 uM or medium alone (row)
[15] = ibrutinib 16 nM with I-BET151 5 uM, OTX015 1 uM or medium alone (row)
[16] = ibrutinib 80 nM with I-BET151 5 uM, OTX015 1 uM or medium alone (row)
[17] = ibrutinib 400 nM with I-BET151 5 uM, OTX015 1 uM or medium alone (row)
[18] = ibrutinib 2000 nM with I-BET151 5 uM, OTX015 1 uM or medium alone (row)
[19] = ibrutinib 10000 nM with I-BET151 5 uM, OTX015 1 uM or medium alone (row)
[20] = ibrutinib […] with I-BET151 5 uM, OTX015 1 uM or medium alone (row)
[21] = ibrutinib 0 nM (BET inhibitor alone): I-BET151 200 nM, OTX015 50 nM (Table 2)
[22] = ibrutinib 0.0256 nM with I-BET151 200 nM, OTX015 50 nM (Table 2) or medium alone (row)
[23] = ibrutinib 0.64 nM with I-BET151 200 nM, OTX015 50 nM (Table 2) or medium alone (row)
[24] = ibrutinib 3.2 nM with I-BET151 200 nM, OTX015 50 nM (Table 2) or medium alone (row)
[25] = ibrutinib 16 nM with I-BET151 200 nM, OTX015 50 nM (Table 2) or medium alone (row)
[26] = ibrutinib 80 nM with I-BET151 200 nM, OTX015 50 nM (Table 2) or medium alone (row)
[27] = ibrutinib 400 nM with I-BET151 200 nM, OTX015 50 nM (Table 2) or medium alone (row)
[28] = ibrutinib 2000 nM with I-BET151 200 nM, OTX015 50 nM (Table 2) or medium alone (row)
[29] = ibrutinib 10000 nM with I-BET151 200 nM, OTX015 50 nM (Table 2) or medium alone (row)
[30] = ibrutinib […] with I-BET151 200 nM, OTX015 50 nM (Table 2) or medium alone (row)
[31] = ibrutinib 0 nM (BET inhibitor alone): I-BET151 2 uM, OTX015 1 uM (Table 2)
[32] = ibrutinib 0.0256 nM with I-BET151 2 uM, OTX015 1 uM (Table 2) or medium alone (row)
[33] = ibrutinib 10000 nM with I-BET151 2 uM, OTX015 1 uM (Table 2) or medium alone (row)
[34] = ibrutinib […] with I-BET151 2 uM, OTX015 1 uM (Table 2) or medium alone (row)

Compound: COc1cc2c(cc1-c1c(C)noc1C)ncc1[nH]c(=O)n([C@H](C)c3ccccn3)c12 [I-BET151]
- luminescent signals (TMD8; [1]): 53526.63
- luminescent signals (TMD8; [2]): 14177.65
- luminescent signals (TMD8; [3]): 12722.72
- luminescent signals (TMD8; [4]): 11655.25
- luminescent signals (TMD8; [5]): 11328.42
- luminescent signals (TMD8; [6]): 11526.1
- luminescent signals (TMD8; [7]): 11191.36
- luminescent signals (TMD8; [8]): 11183.45
- luminescent signals (TMD8; [9]): 6995.257
- luminescent signals (TMD8; [10]): 13950.98
- luminescent signals (OCI-LY10; [11]): 43633.29
- luminescent signals (OCI-LY10; [12]): 41108.85
- luminescent signals (OCI-LY10; [13]): 38594.93
- luminescent signals (OCI-LY10; [14]): 31834.18
- luminescent signals (OCI-LY10; [15]): 23382.58
- luminescent signals (OCI-LY10; [16]): 21683.85
- luminescent signals (OCI-LY10; [17]): 21781.14
- luminescent signals (OCI-LY10; [18]): 22475.36
- luminescent signals (OCI-LY10; [19]): 21920.51
- luminescent signals (OCI-LY10; [20]): 38721.15
- luminescent signals (OCI-LY3; [11]): 14156.55
- luminescent signals (OCI-LY3; [12]): 15418.7
- luminescent signals (OCI-LY3; [13]): 15156.3
- luminescent signals (OCI-LY3; [14]): 13849.54
- luminescent signals (OCI-LY3; [15]): 14914.89
- luminescent signals (OCI-LY3; [16]): 13899.4
- luminescent signals (OCI-LY3; [17]): 15392.46
- luminescent signals (OCI-LY3; [18]): 13151.56
- luminescent signals (OCI-LY3; [19]): 14424.2
- luminescent signals (OCI-LY3; [20]): 12962.63
- luminescent signals (U-2932; [21]): 50367.82
- luminescent signals (U-2932; [22]): 45116.29
- luminescent signals (U-2932; [23]): 42565.61
- luminescent signals (U-2932; [24]): 43472.05
- luminescent signals (U-2932; [25]): 43980.61
- luminescent signals (U-2932; [26]): 43659.14
- luminescent signals (U-2932; [27]): 44468.08
- luminescent signals (U-2932; [28]): 42568.25
- luminescent signals (U-2932; [29]): 32015.12
- luminescent signals (U-2932; [30]): 44167.69
- luminescent signals (SU-DHL-2; [31]): 793.343
- luminescent signals (SU-DHL-2; [32]): 714.534
- luminescent signals (SU-DHL-2; ibrutinib 0.64 nM with I-BET151 2 uM, OTX015 1 uM (Table 2) or medium alone (row)): 704.027
- luminescent signals (SU-DHL-2; ibrutinib 3.2 nM with I-BET151 2 uM, OTX015 1 uM (Table 2) or medium alone (row)): 809.105
- luminescent signals (SU-DHL-2; ibrutinib 16 nM with I-BET151 2 uM, OTX015 1 uM (Table 2) or medium alone (row)): 843.256
- luminescent signals (SU-DHL-2; ibrutinib 80 nM with I-BET151 2 uM, OTX015 1 uM (Table 2) or medium alone (row)): 922.065
- luminescent signals (SU-DHL-2; ibrutinib 400 nM with I-BET151 2 uM, OTX015 1 uM (Table 2) or medium alone (row)): 798.597
- luminescent signals (SU-DHL-2; ibrutinib 2000 nM with I-BET151 2 uM, OTX015 1 uM (Table 2) or medium alone (row)): 717.161
- luminescent signals (SU-DHL-2; [33]): 585.813
- luminescent signals (SU-DHL-2; [34]): 835.375

Compound: Cc1sc2c(c1C)C(c1ccc(Cl)cc1)=N[C@@H](CC(=O)Nc1ccc(O)cc1)c1nnc(C)n1-2 [OTX015]
- luminescent signals (TMD8; [1]): 47319.47
- luminescent signals (TMD8; [2]): 11004.22
- luminescent signals (TMD8; [3]): 9847.13
- luminescent signals (TMD8; [4]): 9773.329
- luminescent signals (TMD8; [5]): 9272.538
- luminescent signals (TMD8; [6]): 9472.854
- luminescent signals (TMD8; [7]): 9301.531
- luminescent signals (TMD8; [8]): 10927.78
- luminescent signals (TMD8; [9]): 7055.879
- luminescent signals (TMD8; [10]): 11191.36
- luminescent signals (OCI-LY10; [11]): 45142.68
- luminescent signals (OCI-LY10; [12]): 42481.51
- luminescent signals (OCI-LY10; [13]): 40790.66
- luminescent signals (OCI-LY10; [14]): 33872.14
- luminescent signals (OCI-LY10; [15]): 29764.67
- luminescent signals (OCI-LY10; [16]): 25880.72
- luminescent signals (OCI-LY10; [17]): 25433.68
- luminescent signals (OCI-LY10; [18]): 24952.47
- luminescent signals (OCI-LY10; [19]): 23945.32
- luminescent signals (OCI-LY10; [20]): 42647.18
- luminescent signals (OCI-LY3; [11]): 12422.08
- luminescent signals (OCI-LY3; [12]): 14387.47
- luminescent signals (OCI-LY3; [13]): 13925.64
- luminescent signals (OCI-LY3; [14]): 14043.72
- luminescent signals (OCI-LY3; [15]): 13776.07
- luminescent signals (OCI-LY3; [16]): 14290.38
- luminescent signals (OCI-LY3; [17]): 15615.51
- luminescent signals (OCI-LY3; [18]): 15793.94
- luminescent signals (OCI-LY3; [19]): 14418.95
- luminescent signals (OCI-LY3; [20]): 12918.02
- luminescent signals (U-2932; [21]): 55416.46
- luminescent signals (U-2932; [22]): 53427.04
- luminescent signals (U-2932; [23]): 50299.31
- luminescent signals (U-2932; [24]): 45013.52
- luminescent signals (U-2932; [25]): 49095.12
- luminescent signals (U-2932; [26]): 44565.57
- luminescent signals (U-2932; [27]): 48570.75
- luminescent signals (U-2932; [28]): 44022.77
- luminescent signals (U-2932; [29]): 33140.26
- luminescent signals (U-2932; [30]): 51182.03
- luminescent signals (SU-DHL-2; [31]): 945.707
- luminescent signals (SU-DHL-2; [32]): 1016.636
- luminescent signals (SU-DHL-2; [33]): 782.836
- luminescent signals (SU-DHL-2; [34]): 1087.564
